Test system: individuals diagnosed with schizophrenia
Test: Change in PANSS-T by SNP genotype, patients on iloperidone 24 mg/day b.i.d. for 28 days (MMRM, LOCF)
Format: in vivo, human
Description: Earlier studies investigated an association between a polymorphism in the CNTF gene and iloperidone efficacy as well as associations between CYP2D6 and KCNQ1 genotypes and changes in QT interval following the administration of iloperidone. The present study involved the genotyping of DNA samples collected from 426 individuals diagnosed with schizophrenia in an attempt to identify additional SNPs associated with iloperidone efficacy. Each sample was genotyped at more than 500,000 SNP loci using the GeneChip® Human Mapping 500K Array Set (Affymetrix, Santa Clara, Calif.) and using assays developed in-house. Approximately half of the participants in the study were administered 24 mg/day of iloperidone, b.i.d., for 28 days. About 25% of the patients were administered ziprasidone. The remaining participants were administered a placebo. Three analyses of the PANSS-T were conducted. 1) A two-step approach where samples were randomly split into 2 groups of iloperidone-treated patients used to discover SNPs associated with changed in PANSS-T (Discovery phase) and a second group to confirm the 100 most significant SNPs (Confirmatory phase). 2) A one-step approach using the Last Observation Carried Forward (LOCF) PANSS-T data of all iloperidone-treated patients. For each SNP, the most parsimonious genetic model (e.g., homozygous for one allele v. all other genotypes [i.e., AA v. AB and BB], heterozygous v. homozygous [i.e., AB v. AA and BB]) was established with respect to iloperidone efficacy using a one-way analysis of variance (ANOVA). 3) A Mixed-effects Model Repeated Measures (MMRM) analysis was subsequently conducted using the best genetic model of each SNP in the MMRM model. MMRM analyses were also conducted with the PANSS subscales PANSS-P, PANSS-N, and PANSS-GP. The SNPs with a statistically significant association in all 3 analyses of PANSS-T, as well as the best of each analysis were considered significant findings and are listed below in Table 1. Results for each of these SNPs with the PANSS-T scales and with the three subscales PANSS-P, PANSS-N, and PANSS-GP are shown in Tables 2, 3, 4, and 5, respectively. As used herein, “greater iloperidone efficacy” means an improvement in PANSS-T score of at least about 20%. In the current study, this means an improvement of at least 13 points.

## COc1cc(C(C)=O)ccc1OCCCN1CCC(c2noc3cc(F)ccc23)CC1 [iloperidone, 1-[4-[3-[4-(6-fluoro-1,2-benzisoxazol-3-yl)-1-piperidinyl]propoxy]-3-methoxyphenyl]ethanone]
SNP_A-1819750 (CREG1) genotype A_A
  mean of change in PANSS-T: −18.13
SNP_A-1819750 (CREG1) genotype A_B*
  mean of change in PANSS-T: −10.74
SNP_A-1819750 (CREG1) genotype B_B
  mean of change in PANSS-T: −16.05
SNP_A-1819750 (CREG1) genotype nonAB**
  mean of change in PANSS-T: −16.72
SNP_A-1860353 (RAP1B) genotype A_A**
  mean of change in PANSS-T: −37.40
SNP_A-1860353 (RAP1B) genotype A_B
  mean of change in PANSS-T: −11.79
SNP_A-1860353 (RAP1B) genotype B_B
  mean of change in PANSS-T: −11.84
SNP_A-1860353 (RAP1B) genotype nonAA*
  mean of change in PANSS-T: −11.83
SNP_A-1934663 genotype A_A
  mean of change in PANSS-T: −18.67
SNP_A-1934663 genotype A_B
  mean of change in PANSS-T: −18.34
SNP_A-1934663 genotype B_B*
  mean of change in PANSS-T: −8.39
SNP_A-1934663 genotype nonBB**
  mean of change in PANSS-T: −18.40
SNP_A-1973093 (KIAA0040) genotype A_A
  mean of change in PANSS-T: −14.99
SNP_A-1973093 (KIAA0040) genotype A_B*
  mean of change in PANSS-T: −6.21
SNP_A-1973093 (KIAA0040) genotype B_B
  mean of change in PANSS-T: −16.73
SNP_A-1973093 (KIAA0040) genotype nonAB**
  mean of change in PANSS-T: −16.39
SNP_A-1975928 (SLC2A9) genotype A_A
  mean of change in PANSS-T: −13.09
SNP_A-1975928 (SLC2A9) genotype A_B
  mean of change in PANSS-T: −13.17
SNP_A-1975928 (SLC2A9) genotype B_B*
  mean of change in PANSS-T: 16.38
SNP_A-1975928 (SLC2A9) genotype nonBB**
  mean of change in PANSS-T: −13.11
SNP_A-1987915 (GPR126) genotype A_A
  mean of change in PANSS-T: −9.87
SNP_A-1987915 (GPR126) genotype A_B
  mean of change in PANSS-T: −9.61
SNP_A-1987915 (GPR126) genotype B_B**
  mean of change in PANSS-T: −17.29
SNP_A-1987915 (GPR126) genotype nonBB*
  mean of change in PANSS-T: −9.67
SNP_A-2007721 (LOC58486) genotype A_A
  mean of change in PANSS-T: −4.55
SNP_A-2007721 (LOC58486) genotype A_B**
  mean of change in PANSS-T: −22.64
SNP_A-2007721 (LOC58486) genotype B_B
  mean of change in PANSS-T: −9.55
SNP_A-2007721 (LOC58486) genotype nonAB*
  mean of change in PANSS-T: −9.52
SNP_A-2044214 (HNT) genotype A_A
  mean of change in PANSS-T: −15.71
SNP_A-2044214 (HNT) genotype A_B*
  mean of change in PANSS-T: −7.43
SNP_A-2044214 (HNT) genotype B_B
  mean of change in PANSS-T: −14.43
SNP_A-2044214 (HNT) genotype nonAB**
  mean of change in PANSS-T: −15.26
SNP_A-2048427 (NPAS3) genotype A_A
  mean of change in PANSS-T: −19.94
SNP_A-2048427 (NPAS3) genotype A_B
  mean of change in PANSS-T: −20.15
SNP_A-2048427 (NPAS3) genotype B_B*
  mean of change in PANSS-T: −9.20
SNP_A-2048427 (NPAS3) genotype nonBB**
  mean of change in PANSS-T: −20.12
SNP_A-2070454 (NKX2-5) genotype A_A
  mean of change in PANSS-T: −9.88
SNP_A-2070454 (NKX2-5) genotype A_B
  mean of change in PANSS-T: −10.39
SNP_A-2070454 (NKX2-5) genotype B_B**
  mean of change in PANSS-T: −18.31
SNP_A-2070454 (NKX2-5) genotype nonBB*
  mean of change in PANSS-T: −10.23
SNP_A-2076797 (NUDT9P1) genotype A_A
  mean of change in PANSS-T: −7.14
SNP_A-2076797 (NUDT9P1) genotype A_B**
  mean of change in PANSS-T: −18.73
SNP_A-2076797 (NUDT9P1) genotype B_B
  mean of change in PANSS-T: −6.04
SNP_A-2076797 (NUDT9P1) genotype nonAB*
  mean of change in PANSS-T: −6.61
SNP_A-2103099 (HTR1A) genotype A_A
  mean of change in PANSS-T: −17.43
SNP_A-2103099 (HTR1A) genotype A_B*
  mean of change in PANSS-T: −8.31
SNP_A-2103099 (HTR1A) genotype B_B
  mean of change in PANSS-T: −16.12
SNP_A-2103099 (HTR1A) genotype nonAB**
  mean of change in PANSS-T: −16.60
SNP_A-2120958 genotype A_A
  mean of change in PANSS-T: −13.95
SNP_A-2120958 genotype A_B
  mean of change in PANSS-T: −13.71
SNP_A-2120958 genotype B_B*
  mean of change in PANSS-T: 2.48
SNP_A-2120958 genotype nonBB**
  mean of change in PANSS-T: −13.85
SNP_A-2170121 (C6) genotype A_A
  mean of change in PANSS-T: −8.94
SNP_A-2170121 (C6) genotype A_B**
  mean of change in PANSS-T: −21.93
SNP_A-2170121 (C6) genotype B_B
  mean of change in PANSS-T: −11.50
SNP_A-2170121 (C6) genotype nonAB*
  mean of change in PANSS-T: −9.17
SNP_A-2274533 (LZTS1) genotype A_A**
  mean of change in PANSS-T: −15.95
SNP_A-2274533 (LZTS1) genotype A_B
  mean of change in PANSS-T: −6.04
SNP_A-2274533 (LZTS1) genotype B_B
  mean of change in PANSS-T: −6.21
SNP_A-2274533 (LZTS1) genotype nonAA*
  mean of change in PANSS-T: −6.08
SNP_A-2283283 (XKR4) genotype A_A*
  mean of change in PANSS-T: −3.30
SNP_A-2283283 (XKR4) genotype A_B
  mean of change in PANSS-T: −14.57
SNP_A-2283283 (XKR4) genotype B_B
  mean of change in PANSS-T: −15.66
SNP_A-2283283 (XKR4) genotype nonAA**
  mean of change in PANSS-T: −15.02
SNP_A-2284243 (GRIA4) genotype A_A
  mean of change in PANSS-T: −15.30
SNP_A-2284243 (GRIA4) genotype A_B
  mean of change in PANSS-T: −15.17
SNP_A-2284243 (GRIA4) genotype B_B*
  mean of change in PANSS-T: −3.30
SNP_A-2284243 (GRIA4) genotype nonBB**
  mean of change in PANSS-T: −15.22
SNP_A-4204396 (CDH13) genotype A_A
  mean of change in PANSS-T: −13.72
SNP_A-4204396 (CDH13) genotype A_B
  mean of change in PANSS-T: −14.04
SNP_A-4204396 (CDH13) genotype B_B*
  mean of change in PANSS-T: 4.89
SNP_A-4204396 (CDH13) genotype nonBB**
  mean of change in PANSS-T: −13.84
SNP_A-4212785 (PPP1R3B) genotype A_A*
  mean of change in PANSS-T: 25.90
SNP_A-4212785 (PPP1R3B) genotype A_B
  mean of change in PANSS-T: −13.66
SNP_A-4212785 (PPP1R3B) genotype B_B
  mean of change in PANSS-T: −13.56
SNP_A-4212785 (PPP1R3B) genotype nonAA**
  mean of change in PANSS-T: −13.60
SNP_A-4230979 (ASB3) genotype A_A
  mean of change in PANSS-T: −6.70
SNP_A-4230979 (ASB3) genotype A_B
  mean of change in PANSS-T: −8.77
SNP_A-4230979 (ASB3) genotype B_B**
  mean of change in PANSS-T: −18.82
SNP_A-4230979 (ASB3) genotype nonBB*
  mean of change in PANSS-T: −8.34
SNP_A-4256833 (MLCK) genotype A_A
  mean of change in PANSS-T: −15.19
SNP_A-4256833 (MLCK) genotype A_B*
  mean of change in PANSS-T: −6.20
SNP_A-4256833 (MLCK) genotype B_B
  mean of change in PANSS-T: −15.15
SNP_A-4256833 (MLCK) genotype nonAB**
  mean of change in PANSS-T: −15.15
SNP_A-4258279 (RRM1) genotype A_A
  mean of change in PANSS-T: −13.42
SNP_A-4258279 (RRM1) genotype A_B*
  mean of change in PANSS-T: −2.55
SNP_A-4258279 (RRM1) genotype B_B
  mean of change in PANSS-T: −14.72
SNP_A-4258279 (RRM1) genotype nonAB**
  mean of change in PANSS-T: −14.70

— patent publication US9080214B2, “Genetic markers for efficacy of iloperidone in the treatment of psychotic symptoms” (Vanda Pharmaceuticals, Inc., priority 2007, dated 2015)
